Consider 1 compound from patent US7642255B2, “Compounds and compositions as protein kinase inhibitors” (IRM LLC, priority 2004, dated 2010).

Assay type in all cases: cell-based
In test [1] the target is T1, M351T Bcr-abl (Homo sapiens, UniProt P00519, M351T).
T1 construct: BCR (N-terminal fusion partner); expressed in transfected cells; host or cells: Ba/F3 cells; the other entry of the earlier key: BCR (P11274, Breakpoint cluster region protein)
The test is described as follows: Antiproliferative effect on Ba/F3 cells expressing mutant BCR-Abl M351T. How it is done:
(§1) 32D-p210 cells are plated into 96 well TC plates at a density of 15,000 cells per well. 50 μL of two fold serial dilutions of the test compound (Cmax is 40 μM) are added to each well (STI571 is included as a positive control). After incubating the cells for 48 hours at 37° C., 5% CO2, 15 μL of MTT (Promega) is added to each well and the cells are incubated for an additional 5 hours. The optical density at 570 nm is quantified spectrophotometrically and IC50 values, the concentration of compound required for 50% inhibition, determined from a dose response curve.
(§2) Compounds of the invention are tested for their antiproliferative effect on Ba/F3 cells expressing either wild type or the mutant forms of BCR-Abl (G250E, E255V, T3151, F317L, M351T) that confers resistance or diminished sensitivity to STI571. The antiproliferative effect of these compounds on the mutant-BCR-Abl expressing cells and on the non transformed cells were tested at 10, 3.3, 1.1 and 0.37 μM as described above (in media lacking IL3). The IC50 values of the compounds lacking toxicity on the untransformed cells were determined from the dose response curves obtained as describe above.

Test [2] has as its target T2, E255V Bcr-abl (Homo sapiens, UniProt P00519, E255V).
T2 construct: BCR (N-terminal fusion partner); expressed in transfected cells; host or cells: Ba/F3 cells; the other entry of the earlier key: BCR (P11274, Breakpoint cluster region protein)
Put plainly: Antiproliferative effect on Ba/F3 cells expressing mutant BCR-Abl E255V. As to the method: as §1, §2

For test [3], the target named is T3, wild type Bcr-abl (Homo sapiens, UniProt P00519).
T3 construct: BCR (N-terminal fusion partner); expressed in transfected cells; host or cells: Ba/F3 cells; the other entry of the earlier key: BCR (P11274, Breakpoint cluster region protein)
The test is described as follows: Antiproliferative effect on Ba/F3 cells expressing wild type BCR-Abl. As to the method:
as §1, §2

Test [4] deals with T4, G250E Bcr-abl (Homo sapiens, UniProt P00519, G250E).
T4 construct: BCR (N-terminal fusion partner); expressed in transfected cells; host or cells: Ba/F3 cells; the other entry of the earlier key: BCR (P11274, Breakpoint cluster region protein)
Put plainly: Antiproliferative effect on Ba/F3 cells expressing mutant BCR-Abl G250E. How it is done:
as §1, §2

For test [5], the target named is T5, T3151 Bcr-abl (Homo sapiens, UniProt P00519, T315I).
T5 construct: BCR (N-terminal fusion partner); expressed in transfected cells; host or cells: Ba/F3 cells
The test is described as follows: Antiproliferative effect on Ba/F3 cells expressing mutant BCR-Abl T3151. How it is done:
as §1, §2

Test [6] has as its target T6, F317L Bcr-abl (Homo sapiens, UniProt P00519, F317L).
T6 construct: BCR (N-terminal fusion partner); expressed in transfected cells; host or cells: Ba/F3 cells; the other entry of the earlier key: BCR (P11274, Breakpoint cluster region protein)
The test is described as follows: Antiproliferative effect on Ba/F3 cells expressing mutant BCR-Abl F317L. As to the method: as §1, §2

The term IC50 denotes the concentration needed to halve the response being measured. A low value points to greater potency. On to `Cc1ccc(NC(=O)c2cccc(C(F)(F)F)c2)cc1N1Cc2cnc(Nc3cccc(N)c3)nc2N(C)C1=O` [Example 2, N-{3-[7-(3-Amino-phenylamino)-1-methyl-2-oxo-1,4-dihydro-2H-pyrimido[4,5-d]pyrimidin-3-yl]-4-methyl-phenyl}-3-trifluoromethyl-benzamide], for which the IC50 worked out at 5 nM in test [1]; 5 nM in test [2]; 5 nM in test [3]; 2 nM in test [4]; 3 nM in test [5]; 5 nM in test [6].
